Measured values published in patent publication US20050233389A1, “Methods and compositions for peptide and protein labeling” (priority 2003, published 2005).

Key:
BirA = BirA (Escherichia coli, UniProt P06709); assay: Measurement of probe ligation kinetics (HPLC); assay type: biochemical, E. coli; conditions: for initial rate for ligation to synthetic AP: 100 μM AP, 30° C.
Description: (§1) HPLC assay for probe ligation to synthetic AP. The synthetic acceptor peptide (AP) with sequence […] (SEQ ID NO: 22) was synthesized by the Tufts University Core Facility. […] Following lyophilization, the peptide was redissolved in water, and the concentration was determined from the absorbance at 280 nm using the calculated extinction coefficient of 5690 M^−1cm^−1. Reaction conditions for the probe ligation to the AP were as follows: 50 mM bicine pH 8.3, 5 mM Mg(OAc)2, 4 mM ATP, 100 μM AP, 1-2 μM BirA, and 1 mM probe (either biotin or racemic ketone 1). Reactions were incubated at 30° C. for 1-2 hours, then quenched with addition of 45 mM EDTA. Reactions were analyzed on a reverse-phase HPLC column (Microsorb-MV 300 C18). Biotin ligation reactions were analyzed using a gradient of 10-43% acetonitrile/water with 0.1% TFA over 20 minutes (flow rate 1.0 mL/min); retention times were 8.2 minutes for biotin, 16.3 minutes for the AP, and 17.7 minutes for the AP-biotin conjugate. Ketone 1 ligation reactions were analyzed using a gradient of 10-46% acetonitrile/water with 0.1 % TFA over 25 minutes (flow rate 1.0 mL/min); retention times were 16.4 minutes for ketone 1, 17.9 minutes for the AP, and 22.0 minutes for the AP-ketone 1 conjugate. For MALDI-TOF analysis, the product peak was collected, diluted with matrix solution (saturated α-cyano 4-hydroxycinnamic acid in 50% acetonitrile/water with 0.05% TFA), and spotted onto the sample target. Positive-ion MALDI-TOF data was acquired in reflector mode with external calibration.
Measurement of probe ligation kinetics. For kinetic measurements, the reaction conditions were the same as above except that 0.091 μM BirA was used, and for the ketone ligation reactions, 2 mM of racemic ketone 1 was used. A 400 μL reaction was initiated by addition of BirA and incubated at 30° C. At various timepoints, a 40 μL aliquot was removed and quenched with EDTA. Reactions were analyzed by reverse-phase HPLC as described above. The area ratios of AP and AP-probe conjugate peaks were converted to concentrations of AP-probe conjugate using a calibration curve generated by mixing known ratios of AP and AP-probe conjugate. The concentration of AP-probe conjugate was plotted versus time, and the reported initial rate was the slope of the line fit to the linear region of product synthesis.

streptavidin = streptavidin (Streptomyces avidinii, UniProt P22629); assay: streptavidin binding to ketone 1; conditions: separate experiments; data not shown
streptavidin, sequence (P22629 25-183): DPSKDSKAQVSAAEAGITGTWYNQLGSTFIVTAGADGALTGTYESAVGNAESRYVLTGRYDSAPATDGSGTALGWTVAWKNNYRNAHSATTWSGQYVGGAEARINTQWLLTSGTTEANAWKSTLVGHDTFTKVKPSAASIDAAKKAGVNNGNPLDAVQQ

wild-type BirA = wild-type BirA (Escherichia coli, UniProt P06709); assay: HPLC assay for probe ligation to synthetic AP; assay type: biochemical, E. coli; conditions: enantiomers separated by chiral HPLC; data not shown
wild-type BirA, sequence (P06709 whole entry): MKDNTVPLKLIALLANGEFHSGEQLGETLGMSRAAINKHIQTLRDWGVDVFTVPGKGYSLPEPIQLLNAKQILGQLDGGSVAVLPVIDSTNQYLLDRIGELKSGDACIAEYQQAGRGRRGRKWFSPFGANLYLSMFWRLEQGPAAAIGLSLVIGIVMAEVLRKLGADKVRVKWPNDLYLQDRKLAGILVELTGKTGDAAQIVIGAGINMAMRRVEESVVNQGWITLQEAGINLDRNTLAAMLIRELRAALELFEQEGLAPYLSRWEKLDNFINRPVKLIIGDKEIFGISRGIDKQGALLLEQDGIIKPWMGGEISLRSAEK
Description: as §1, with “For MALDI-TOF analysis, the product peak was collected, diluted with matrix solution (saturated α-cyano 4-hydroxycinnamic acid in 50% acetonitrile/water with 0.05% TFA), and spotted onto the sample target. Positive-ion MALDI-TOF data was acquired in reflector mode with external calibration.” left out

BirA, sequence (P06709 whole entry): as above

Row | Structure (SMILES) | conversion until which the ligation rate remained constant (BirA; 0.091 μM BirA) [%] | initial rate for ligation to synthetic AP (BirA; 1 mM biotin, 0.091 μM BirA) [µM/min] | binding of streptavidin to the probe itself (streptavidin) | acceptance of separated enantiomers by BirA (wild-type BirA) | enzyme turnovers after which the ligation rate slowed markedly (BirA; 0.091 μM BirA) [enzyme turnovers] | initial rate for ligation to synthetic AP (BirA; 2 mM racemic ketone 1, 0.091 μM BirA) [µM/min] | initial ligation rate, fold less than that for biotin ligation (BirA; ketone 1 vs biotin, identical conditions) [fold]
1 | O=C(O)CCCC[C@@H]1SC[C@@H]2NC(=O)N[C@@H]21 [biotin, reference compound] | > 50 | 0.954 ± 0.018 |  |  |  |  | 
2 | O=C(O)CCCC[C@@H]1SC[C@@H]2CC(=O)C[C@@H]21 [ketone 1] |  |  | does not bind | Only one enantiomer was accepted | ~100 | 0.258 ± 0.024 | 3.7
